Laboratory results: publication PMC4818757, “Small molecule inhibitors of the Dishevelled‐CXXC5 interaction are new drug candidates for bone anabolic osteoporosis therapy” (EMBO Molecular Medicine, 2016)

Tests used:
Wnt/β‐catenin pathway = assay: TOPflash reporter assay; format: cell-based, murine; settings: MC3T3E1 cells, 2 days
Procedure: Figure 3 Effect of KY‐02061 on Wnt/β‐catenin pathway, osteoblast differentiation, and ex vivo‐cultured calvaria growth • A MC3T3E1 cells were transfected with pTOPFLASH together with pCMV‐β‐gal. After 24 h, the cells were treated with DMSO, KY‐02061 in DMSO, or 5 μM PolyR‐DBM for 2 days. The luciferase activities of whole‐cell lysates were measured and normalized with β‐galactosidase activities. (n = 3) • B Primary calvaria cells were isolated from the calvariae of 4‐day‐old mice (Manton et al, 2007) and treated with DMSO or KY‐02061 in DMSO for 4 days. ALP activity levels were visualized by ALP staining. • C Primary calvaria cells were treated with DMSO or 5 μM KY‐02061 in DMSO for 14 days. […] The calvaria thicknesses were measured from the stained sections using Image Pro software (E). […] (error bars), and significance was assessed using unpaired Student's t‐test.
Figure 5 Effects of KY‐02327 on Wnt/β‐catenin pathway and osteoblast differentiation in osteoblasts • A MC3T3E1 cells were transfected with pTOPFLASH together with pCMV‐β‐gal. […] The luciferase activities of whole‐cell lysates were measured and normalized with β‐galactosidase activities. (n = 3) • B, C MC3T3E1 cells were treated with indicated concentrations of KY‐02327 for 2 days. β‐Catenin and α‐tubulin were detected by immunoblot (B) or immunofluorescence (C) analyses. […] The mRNA level of osteocalcin (OCN) was measured by qRT–PCR. […]

Dvl PDZ domain = target: T1, Dvl PDZ domain (Homo sapiens, UniProt O14640); assay: NMR titration (1H-15N-HSQC); format: binding
T1 construct: plasmid DNA encoding Dvl-1247- 341 (the Dvl PDZ domain); His-tag (TEV-cleavable) (cleaved yes); made in house; host or cells: E. coli BL21 (DE3)
T1 sequence (O14640 247-341 limits assumed): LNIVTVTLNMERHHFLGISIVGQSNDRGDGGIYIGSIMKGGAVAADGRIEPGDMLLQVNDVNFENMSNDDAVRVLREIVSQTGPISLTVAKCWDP
Procedure: For NMR titration, ^1H‐^15N‐heteronuclear single‐quantum coherence spectroscopy (HSQC) was performed using various molar ratios of ^15N‐labeled Dvl PDZ domain relative to the DBM peptide, KY‐02061, or KY‐02327. For the Dvl PDZ domain and DBM titration, the molar ratios of ^15N‐labeled Dvl PDZ domain to peptide ligand were 1:5, 1:10, 1:15, 1:20, and 1:25. For the Dvl PDZ domain and KY‐02061 titration, the molar ratios were 1:10, 1:20, 1:40, 1:60, and 1:80. For the Dvl PDZ domain and KY‐02327 titration, the molar ratios were 1:0, 1:5, 1:10, and 1:20. All spectra were processed using XWINNMR (Bruker Biospin Corp., Billerica, MA) and NMRpipe/NMRDraw software (Delaglio et al, 1995). Using the Sparky program, all residues in each spectrum were completely assigned, and the chemical shift perturbations were calculated using the equation ΔδAV = ((Δδ1H)^2 + (Δδ15N/5)^2)^1/2, where ΔδAV, Δδ1H, and Δδ15N are the average, proton, and ^15N chemical shift changes, respectively. The residues showing ΔδAV > 0.05 were selected as residues participating in the interaction.
Dvl PDZ domain purification
E. coli strain BL21 (DE3) was transformed with plasmid DNA encoding Dvl-1247-341 (the Dvl PDZ domain), and the cells were grown in M9 minimal medium containing 15N isotope for 17 hours at 21°C and after then 1 mM isopropyl-1-thio-β -D-thiogalactopyranoside was treated. […]

[1] = Metabolic stability, rat liver microsomes; format: in vitro ADME

metabolic stability (in words) [1] | SMILES | activation of the Wnt/β‐catenin pathway (TOPflash luciferase) (Wnt/β‐catenin pathway) | residues of Dvl PDZ domain perturbed (chemical shift change > 0.05) (Dvl PDZ domain) | Metabolic Stability (%) Rat [1] [%] | stability, fold more stable than KY‐02061 [1] [fold]
poor metabolic stability | CCOC(=O)Cn1c(C(=O)OCC)cc2cc(OS(=O)(=O)c3ccc(C)cc3)ccc21 [KY‐02061] | increased | one residue in βB (S265) and three residues in αB (L321, R322, and V325) were perturbed | 5.1 ± 2.4 | 
 | CCOC(=O)c1cc2cc(O)ccc2n1CC(=O)NCCN1CCCCC1 [KY‐02327] | dose‐dependent effect | one residue in βA (I250) and three residues in αB (V318, R322, and V325) of Dvl PDZ were perturbed | 11.9 | 2.3
